Results on one molecule are retold here after paper PMC7232244, “Aspartic Acid Isomerization Characterized by High Definition Mass Spectrometry Significantly Alters the Bioactivity of a Novel Toxin from Poecilotheria” (Toxins, 2020).

Numbered stars: 1 amine (or outer) side, 2 acyl side, 3 side chain; on linkers, the order of the positions; unused ones are H or OH. Bridge positions count the residues as written; N and C are the ends. Square brackets hold non-standard residues; d marks the D form. Peptide text beside a SMILES is read from it. βAsp = O=C(O)[C@H](CC(=O)[*:2])N[*:1]

The format of the data set is physicochemical. The following applies: chromatographic, reversed-phase UPLC BEH C18, 0.10% formic acid/acetonitrile gradient; P. vittata venom (Figure 3A); taken as increased solubility / loss of hydrophobicity. The source says: We used an iterative series of analytical processes to identify potential peptide modulators for neuronal activity and subsequently identified their primary structure, including PTMs, that may alter their efficacy and potency. In the initial phase of toxin selection, venom from Poecilotheria were collected and screened by HDMS^E. The venom was a complex mixture of molecules with a high percentage of proteinaceous materials ranging from 3–6 kDa with an average venom yield from 50 collections (five from each of the ten species) of ~148 ± 12 μg of total protein per μL of venom as determined by conventional Bradford assay (data not shown). An analytical screening of each venom was performed for preliminary compound identification and any PTMs, e.g., isobaric conformations. 100 μg of lyophilized venom from each species of Poecilotheria were suspended in 1 mL of the initial mobile phase and a 1 μL aliquot injection was made into an UPLC coupled to a HDMS. […]
In order to calculate the molecular mass, we deconvoluted the charge envelope of each peptide using high-resolution mass spectrometry MS scans (“MS” in HDMS^E). […] The molecular monoisotopic masses of PcaTX-1a and PcaTX-1b were determined to be 4024.710 Da and 4024.709 Da, respectively (Figure 3B,C). […]

In the case of `CC(C)C[C@@H]1NC(=O)[C@H](Cc2c[nH]cn2)NC(=O)[C@H](CCCCN)NC(=O)[C@@H]2CSSC[C@H](NC(=O)CNC(=O)[C@H](C)N)C(=O)N[C@@H](CCCCN)C(=O)N[C@@H](Cc3ccc(O)cc3)C(=O)N[C@@H](CC(C)C)C(=O)N[C@@H](Cc3ccccc3)C(=O)NCC(=O)N[C@@H](CO)C(=O)N[C@H]3CSSC[C@H](NC(=O)CNC1=O)C(=O)N[C@@H](CCCNC(=N)N)C(=O)N[C@@H](CCCNC(=N)N)C(=O)N[C@@H](CCCCN)C(=O)N[C@@H](C)C(=O)N1CCC[C@H]1C(=O)N[C@@H](CCC(N)=O)C(=O)N[C@@H](Cc1ccc(O)cc1)C(=O)N[C@H](C(=O)NCC(=O)N[C@@H](Cc1c[nH]c4ccccc14)C(=O)N[C@@H](CC(=O)NCC(=O)N[C@H](C(=O)N[C@@H](Cc1ccccc1)C(N)=O)[C@@H](C)O)C(=O)O)CSSC[C@H](NC(=O)[C@H](CC(=O)O)NC(=O)[C@H](CO)NC(=O)[C@H](CC(=O)O)NC(=O)[C@H](CCC(=O)O)NC(=O)[C@H](CCCCN)NC3=O)C(=O)N2` [PcaTX-1a] (H-AGCKYLFGSCKEDSDCCKHLGCRRKAPQYCGW[βAsp]GTF-NH2; disulfide 3-17, 10-22, 16-30), the “decrease of partition coefficient (k') as compared to PcaTX-1b” value is on record as 9.3%.
